Data from patent US10485776B2, “Medicament for therapeutic treatment of neuropathic disease” (KEMPHYS LTD., priority 2013, dated 2019).
Where “and” joins values, the source holds several entries; their conditions need not be identical. Equal entries are not always repeated.

Experiments:
[1] = tested on: normal leg (right) footpad of rat; test: Rat pain test, Seltzer model, von Frey up-and-down method, normal leg (right); assay type: in vivo
[2] = tested on: model leg (left) footpad of sciatic nerve-ligated rat; test: Rat pain test, Seltzer partial sciatic nerve ligation model, von Frey up-and-down method, model leg (left); assay type: in vivo
[3] = Serum pregabalin concentration after application to the back of an adult, LC/MS (Example 12); assay type: in vivo, human; conditions: 150 mg in aqueous solution applied to the back
Procedure: An aqueous solution containing pregabalin (150 mg) was applied to the back of an adult. After the application, blood was collected, and the serum was deproteinized, and then reacted with dinitrobenzenesulfonyl chloride to derivatize pregabalin. Pregabalin was quantified by LC/MS. The pregabalin concentration reached 9 ng/ml 30 minutes after the administration, and this concentration was maintained thereafter over 3 hours or longer.

[4] = tested on: neuropathic pain mouse (L5 and L6 nerve ligation); test: Suppression of allodynia pain in mouse nerve ligation model, von Frey filament; assay type: in vivo; conditions: for pain threshold of nerve-ligated group vs medium solvent-applied group: hind leg immersed
Procedure: FIG. 1 is a graph showing results of measurement of analgesic effect obtained by applying an aqueous solution of pregabalin (2.5 mg/ml) to a neuropathic pain mouse. The asterisks (*) indicate the presence of a significant difference with respect to the distilled water-applied group.
FIG. 2 is a graph showing results of measurement of analgesic effect obtained by applying an aqueous solution of pregabalin (7.5 mg/ml) to a neuropathic pain mouse. The asterisks (*) indicate the presence of a significant difference with respect to the distilled water-applied group.
The nerves L5 and L6 of mice (n=6) were ligated with silk threads to prepare pain model. A sham group was prepared as a control (n=6). After 4 weeks, hind legs of the mice were immersed in a 2.5 mg/ml or 7.5 mg/ml aqueous solution of pregabalin (solution prepared by dissolving 75 mg of pregabalin in 10 ml or 30 ml of distilled water) 5 minutes before the measurement until the hair of whole right hind leg was wetted with the solution, and air-dried over 30 minutes after the application. In this state, pain threshold was measured by using a von Frey standard filament, and then pain threshold was measured in the same manner 60 minutes, 90 minutes, and 180 minutes thereafter.

[5] = normal site, 1 mg/site on footpad, individual animals No. 71-78
[6] = normal site, 1 mg/site, average of 8 animals
[7] = model site, 1 mg/site on footpad, individual animals No. 71-78
[8] = model site, 1 mg/site, average of 8 animals

## CC(C)C[C@H](CN)CC(=O)O [Pregabalin]
[1]; 10.0 mg/mL in water with 0.1% Tween 80, 0.10 mL on footpad
  change of pain threshold value, normal leg: Increase of the threshold value was also observed
[1]; [5]
  pain threshold value, 1 Hour after administration: 10.0 g and 8.0 g and 15.0 g (2×) and 26.0 g (4×)
  pain threshold value, 3 Hour after administration: 10.0 g (3×) and 26.0 g (2×) and 15.0 g (3×)
  pain threshold value, 6 Hour after administration: 10.0 g (5×) and 8.0 g and 15.0 g (2×)
[1]; [6]
  pain threshold value, 1 Hour after administration, Average: 19.0 g
  pain threshold value, 3 Hour after administration, Average: 15.9 g
  pain threshold value, 6 Hour after administration, Average: 11.0 g
[1]; normal site, average of 8 animals, baseline before 1 mg/site
  pain threshold value, before administration, Average: 10.8 g
[1]; normal site, individual animals No. 71-78, baseline before 1 mg/site
  pain threshold value, before administration: 8.0 g (2×) and 10.0 g (4×) and 15.0 g (2×)
[2]; 10.0 mg/mL in water with 0.1% Tween 80, 0.10 mL on footpad, after 1 hour
  change of pain threshold values, pain model legs: Sufficient increase
[2]; [7]
  pain threshold value, 1 Hour after administration: 8.0 g and 2.0 g and 6.0 g (5×) and 4.0 g
  pain threshold value, 3 Hour after administration: 6.0 g (2×) and 2.0 g (2×) and 4.0 g (4×)
  pain threshold value, 6 Hour after administration: 4.0 g and 1.0 g (3×) and 2.0 g (4×)
[2]; [8]
  pain threshold value, 1 Hour after administration, Average: 5.5 g
  pain threshold value, 3 Hour after administration, Average: 4.0 g
  pain threshold value, 6 Hour after administration, Average: 1.9 g
[2]; model site, average of 8 animals, baseline before 1 mg/site
  pain threshold value, before administration, Average: 1.6 g
[2]; model site, individual animals No. 71-78, baseline before 1 mg/site
  pain threshold value, before administration: 2.0 g (2×) and 1.4 g (6×)
[3]; 9 ng/ml level
  time the serum concentration was maintained: ≥ 3 h
[3]; male, human, serum, topical, 30 minutes after the administration
  concentration at 30 min: 9 ng/mL
[4]; 2.5 mg/ml aqueous solution (low dose group), FIG. 1
  pain threshold of nerve-ligated group vs medium solvent-applied group: statistically significant improvement
[4]; 7.5 mg/ml aqueous solution (high dose group), FIG. 2
  pain threshold of nerve-ligated group vs medium solvent-applied group: statistically significant improvement
[4]; both 2.5 and 7.5 mg/ml groups
  persistence of pain threshold improvement: maintained even after 3 hours
